Reference: US4622312A, “Growth hormone releasing factor analogs” (Hoffmann-La Roche Inc., priority 1984, dated 1986)
No end group written: not given here.

Key:
[1] = test system: rat pituitary cells in tissue culture; experiment: stimulation of growth hormone production in rat pituitary cells in tissue culture (RIA for rat growth hormone); type: cell-based
Description: Biological activity of the synthetic GRF(1-44)NH2 was identical to the natural GRF(1-44)NH2 which was isolated from a human pancreatic tumor of an individual suffering from acromegaly (Salk Institute standard hGRF--NH2 (NL-A-10)). The assay for biological activity, which is based on the ability to stimulate production of growth hormone in rat pituitary cells in tissue culture, was performed in the following manner.
Pituitaries from 30-40 male Sprague-Dawley rats (175 g) were removed aseptically after decapitation. The anterior lobes were collected, washed 3 times in sterile Hepes buffer (0.025M) (pH 7.35) and dispersed at 37° C. in 20-30 ml Hepes buffer (pH 7.35) containing collagenase (4 mg per ml) and Dispase (Protease grade II, 2 mg per ml). After gentle 100-110-min. vortexing and trituration by Pasteur pipette, the dispersed cells were separated by centrifugation (150×g, 4 min) and re-suspended in Hepes buffer containing neuraminidase (8 μg/ml), and 200 µg/ml ethylenedinitrisotetraacetic acid (EDTA) disodium salt pH 7.35, for 10 min. The cells were washed twice with plating medium and plated on multiwell-plates (1.5×10^5 cells per ml) using the following defined medium: F-12/DMEM/(6:3:1) (Gibco: 430-1700/430-1600/320-2591) with 2 g BSA/l., 2.38 g Hepes/1.50 mg PSN antibiotic mixture (Gibco Laboratories). The medium in each well was supplemented either with a sample of the novel GRF peptide or natural GRF(1-44)--NH2 at concentrations ranging from 0.8 to 200 fmol. per ml. of medium. Control wells contained no supplement. Plating was done with this medium added with 2% fetal calf serum to ensure rapid fixation of the cells. On the fourth day the cells were washed twice with the defined medium without fetal calf serum. Finally 900 μl of defined medium was added to each well plus 100 μl of the same medium containing each individual treatment, in triplicate. After 4 hours of incubation the medium was collected and diluted as required to conduct radioimmunoassay (RIAs) for rat growth hormone. […]

[2] = Rivier and Vale et al., Nature 300, 276-278 (1982); cited from earlier work

CC[C@H](C)[C@H](NC(=O)[C@H](C)NC(=O)[C@H](CC(=O)O)NC(=O)[C@H](C)NC(=O)[C@@H](N)Cc1ccc(O)cc1)C(=O)N[C@@H](Cc1ccccc1)C(=O)N[C@H](C(=O)N[C@@H](CC(N)=O)C(=O)N[C@@H](CO)C(=O)N[C@@H](Cc1ccc(O)cc1)C(=O)N[C@@H](CCCNC(=N)N)C(=O)N[C@@H](CCCCN)C(=O)N[C@H](C(=O)N[C@@H](CC(C)C)C(=O)NCC(=O)N[C@@H](CCC(N)=O)C(=O)N[C@@H](CC(C)C)C(=O)N[C@@H](CO)C(=O)N[C@@H](C)C(=O)N[C@@H](CCCNC(=N)N)C(=O)N[C@@H](CCCCN)C(=O)N[C@@H](CC(C)C)C(=O)N[C@@H](CC(C)C)C(=O)N[C@@H](CCC(N)=O)C(=O)N[C@@H](CC(=O)O)C(=O)N[C@H](C(=O)N[C@@H](CCSC)C(=O)N[C@@H](CO)C(=O)N[C@@H](CCCNC(=N)N)C(=O)N[C@@H](CCC(N)=O)C(=O)N[C@@H](CCC(N)=O)C(=O)NCC(=O)N[C@@H](CCC(=O)O)C(=O)N[C@@H](CO)C(=O)N[C@@H](CC(N)=O)C(=O)N[C@@H](CCC(N)=O)C(=O)N[C@@H](CCC(=O)O)C(=O)N[C@@H](CCCNC(=N)N)C(=O)NCC(=O)N[C@@H](C)C(=O)N[C@@H](CCCNC(=N)N)C(=O)N[C@@H](C)C(=O)N[C@@H](CCCNC(=N)N)C(=O)N[C@@H](CC(C)C)C(N)=O)[C@@H](C)CC)C(C)C)[C@@H](C)O [GRF(1-44)NH2]
biological activity compared with natural GRF(1-44)NH2 (Salk Institute standard hGRF-NH2 (NL-A-10)) ([1]; synthetic versus natural peptide isolated from a human pancreatic tumor): identical

GRF(1-29)NH2
intrinsic activity and potency in vitro [2]: full intrinsic activity and potency

YADAIFTNSYRKVLAQLSARKLLQDIMSR-NH2 [(Ala^15)-GRF(1-29)NH2, [Ala^15]-hGRF(1-29)-NH2]
potency relative to GRF(1-29)NH2 (unsubstituted shortened GRF) ([1]; growth hormone release, 4 hours of incubation): 4.1 times | potency relative to GRF (1-44)NH2 ([1]; on a weight for weight basis, growth hormone release, 4 hours of incubation): 5.1 times
